One data set addresses T1, hK2 (Homo sapiens, UniProt P20151).
T1 construct: made in house
Kind of data set: hK2 mediated hydrolysis of peptide substrates in solution (fluorescence). The format is biochemical. The following applies: for hK2 mediated hydrolysis (in words, FIG. 2): substrates 250 μM, 8 μg/ml hK2 in PBS buffer; for digestion by hK2 of arginine-free peptides (in words): in solution, even after prolonged incubation. On the procedure: FIG. 2 depicts a graph of hK2 mediated hydrolysis of peptide substrates identified through the screening of a random peptide library [Y′GKARAF-Dap-FK′ (SEQ ID NO:36), Y′GKAKPR-Dap-FK′ (SEQ ID NO:37), Y′GKAFRR-Dap-FK′ (SEQ ID NO:38), Y′GKAMRQ-Dap-FK′ (SEQ ID NO:39) and Y′GSKGHFKL-Dap-F-K′ (SEQ ID NO:40)]. Substrates (250 μM) were incubated with 8 μg/ml hK2 in PBS buffer. Hydrolysis of peptide results in increased fluorescence, as measured using a 96 well fluorometer. […] To determine 100% digestion, trypsin was added (50 mg/ml) and samples were incubated to 37° C. for 30 min and the fluorescence was determined. The percentage digested is determined by dividing fluorescence units of sample by fluorescence units of control fully digested peptide.
A mutant form of hK2 was utilized in which the amino acids −5 to −1 of the propeptide sequence of hK2 (i.e. Leu-Ile-Gln-Ser-Arg; SEQ ID NO:15) were mutated to Asp-Asp-Asp-Asp-Lys (SEQ ID NO:16) to generate a pro-hK2 protein that can be activated to functional hK2 by […] (Lovgren, J. et al. (1999) Eur. J. Biochem. 266:1050-1055). Compared with wild-type hK2, expression of the propeptide hK2 mutant increases the expression levels up to 15-40-fold (Lovgren, J. et al. (1999) Eur. J. Biochem. 266:1050-1055). The generation and characteristics of this mutant hK2 have been previously described (Lovgren, J. et al. (1999) Eur. J. Biochem. 266:1050-1055).
For validation of the Edman results, peptides were re-synthesized using a Rainin PS3 peptide synthesizer with HBTU/NMM activation. Peptides were synthesized on PEGA resin for on-bead analysis or on Fmoc-Lys(Mtt)-Wang resin for solution assays. The Fmoc-Lys(Mtt)-Wang resin was first deprotected with 2% TFA in DCM (3×2 min). The ε-amine of lysine was then acylated with Boc-Abz. Deprotection/cleavage was performed in TFA/TIS/water (95:2.5:2.5 v/v) for 2-3 hours. Peptides were ether precipitated, dried and purified by C18-HPLC using a linear gradient of acetonitrile (0.1% TFA), lyophilized and dissolved in DMSO. Peptide identities were confirmed by analysis on a Perseptive Voyager DE-STR MALDI-TOF using dihydroxy benzoic acid as a matrix. Fluorescence measurements were performed on a Fluoroskan II 96-well plate reader (ICN biomedicals, Costa Mesa, Calif.; excitation, 355 nm; emission, 460 nm). Kinetic parameters were calculated as described earlier (Denmeade, S. R. et al. (1997) Cancer Res. 57:4924-4930).
The combinatorial screen identified seven arginine-containing peptides. Four of these were re-synthesized (X1-X2-X3=RAF, KPR, FRR and MRQ respectively). Three other lead sequences were not re-synthesized (X1-X2-X3=IQR, FRK and VRQ respectively). All four arginine-containing sequences that were re-synthesized reproduced fluorescence when these peptides were digested on-bead with hK2. For a more quantitative analysis, the fluorescence-quenched peptides were cleaved off the resin and purified by HPLC. The rate of hydrolysis was quantified by measuring increase in fluorescence (Figure). […] In less than five minutes, more than 50% of the peptide was digested (500 μM peptide, 4 μg/ml hK2). For the other peptides, digestion of the same amount of peptide took 19-29 minutes. […] In subsequent studies, hydrolysis rates using the Y′GKAFRR-Dap-F-K′ (SEQ ID NO:38) peptide were analyzed by Lineweaver-Burke reciprocal plots.

A short description of data set [1]: plasma stability in 50% human plasma. The format is in vitro ADME. The following applies: for remaining at 3 h, 500 μM: HPLC, read-out: parent peptide remaining after 3 hours; for degradation after overnight incubation (in words): human plasma. Here is the method: FIG. 5 depicts the stability of Ac-GKAFRR-L12ADT (SEQ ID NO:41) in human plasma after a 24 hour incubation, as determined by HPLC analysis. Ac-GKAFRR-L12ADT (SEQ ID NO:41) was incubated in 50% human plasma for 24 hours at room temperature. Peak 1 represents an unidentified plasma contaminant that was also present in control plasma. Peaks 2 and 3 both represent Ac-GKAFRR-L12ADT (SEQ ID NO:41) as confirmed by MALDI-TOF mass spectrometric analysis.
(§1) Mouse plasma was obtained from cardiac puncture of anesthetized mice prior to euthanization by CO2 overdose according to protocols approved by the Johns Hopkins Animal Care and Use Committee. Human plasma was obtained from discarded, pooled, and unlabeled clinical samples. Plasma was diluted to 50% in Tris buffer (50 mM Tris-HCl, 100 mM NaCl, pH 7.8). To this, test peptides/prodrugs were added to 250 or 500 μM final concentration. After the incubation period, one volume (200 μl) of acetonitrile was added to precipitate the protein fraction and the tube was centrifuged at 14,000 for 2 min. The supernatant was analyzed by C18-HPLC and the collected peaks were analyzed by MALDI-TOF as described above.
(§2) Arginine-containing peptides are potential substrates for the wide variety of other trypsin-like proteases that are present in the blood and may have residual activity in the blood. The plasma stability of an hK2 peptide substrate may therefore be limited and this would have significant consequences related to the development of an hK2 activated prodrug. Therefore, two fluorescence quenched hK2 peptide substrates peptides were incubated in 50% mouse or human plasma (diluted in PBS buffer) to determine stability using a plate-reader. As observed with arginine containing peptides from the SPOT analysis above, none of the arginine-containing, fluorescence quenched hK2peptide substrates were stable in human or mouse plasma. Fluorescence-quenched Y′GKAFRR-Dap-GK′ (SEQ ID NO:42) and Y′GKAFRRLGK′ (SEQ ID NO:21) (500 μM each) were hydrolyzed when incubated in 50% mouse or human plasma (FIG. 7). Mouse plasma degraded the peptides faster than human plasma (FIG. 7). […] In human plasma, more peptide remained after 3 hours (˜25%). […] The proteolytic activity from plasma was never affected by repeated freeze-thaw cycles or by storage of the mouse plasma alone at room temperature for several days.
To determine the plasma stability for the hK2 prodrug, the prodrug was incubated in 50% fresh heparinized (1%) plasma for 24 hours at room temperature, precipitated the proteins by adding one volume of 1% TFA in acetonitrile and analyzed the supernatant by HPLC. Unexpectedly, BPLC analysis after 24 hrs incubation in plasma yielded only a single peak corresponding to the hK2 prodrug (FIG. 5). MALDI-TOF MS of the isolated single peak confirmed the stability of the molecule.

A short description of data set [2]: plasma stability in 50% mouse plasma. It counts as in vitro ADME. The settings on record: 500 μM; for parent peptide remaining after 3 hours (in words): HPLC. On the procedure: as §1, §2

Square brackets hold non-standard residues; d marks the D form. Ends that are not written are not given here. Peptide text beside a SMILES is read from it. Tyr(3-NO2) = N[C@@H](Cc1ccc(O)c([N+](=O)[O-])c1)C(=O)O; Abz = aminobenzoic acid; 2Abz = Nc1ccccc1C(=O)O; Dap = NC[C@H](N)C(=O)O

T1 sequence (P20151 25-261): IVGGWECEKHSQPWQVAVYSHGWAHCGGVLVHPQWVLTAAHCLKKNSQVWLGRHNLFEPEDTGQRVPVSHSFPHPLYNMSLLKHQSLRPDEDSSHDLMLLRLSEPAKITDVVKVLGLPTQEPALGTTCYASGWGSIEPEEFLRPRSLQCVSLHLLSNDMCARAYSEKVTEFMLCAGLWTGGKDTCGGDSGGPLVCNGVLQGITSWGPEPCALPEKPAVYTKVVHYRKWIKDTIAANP

Consider `C[C@H](NC(=O)[C@H](CCCCN)NC(=O)CNC(=O)[C@@H](N)Cc1ccc(O)c([N+](=O)[O-])c1)C(=O)N[C@@H](Cc1ccccc1)C(=O)N[C@@H](CCCNC(=N)N)C(=O)N[C@@H](CCCNC(=N)N)C(=O)N[C@@H](CN)C(=O)N[C@@H](Cc1ccccc1)C(=O)N[C@@H](CCCCNC(=O)c1ccccc1N)C(=O)O` [Y′GKAFRR-Dap-F-K′] (H-[Tyr(3-NO2)]GKAFRR[Dap]FK(2Abz)-OH; N-terminus assumed), for which, at hK2 (500 μM peptide, 4 μg/ml hK2), the maximum digestion is reported as 70-75%, the “time in which more than 50% of the peptide was digested” value is given as “less than five” and the “time to reach maximum digestion” value is reported as “less than 15 minutes”. The “hK2 mediated hydrolysis (in words, FIG. 2)” value on hK2 is on record as “by far exceeded all other substrates”.
For orientation: share remaining means what is left of the initial amount, in per cent. For the molecule `C[C@H](NC(=O)[C@H](CCCCN)NC(=O)CNC(=O)[C@@H](N)Cc1ccc(O)c([N+](=O)[O-])c1)C(=O)N[C@@H](Cc1ccccc1)C(=O)N[C@@H](CCCNC(=N)N)C(=O)N[C@@H](CCCNC(=N)N)C(=O)N[C@@H](CN)C(=O)NCC(=O)N[C@@H](CCCCNC(=O)c1ccccc1N)C(=O)O` [Y′GKAFRR-Dap-GK′] (H-[Tyr(3-NO2)]GKAFRR[Dap]GK(2Abz)-OH; N-terminus assumed), the amount remaining at 3 h, 500 μM in data set [1] (50% human plasma, 500 μM) was roughly 25%. Also, in data set [1], the “degradation after overnight incubation (in words)” value is “complete degradation”. Further, the “parent peptide remaining after 3 hours (in words)” value in data set [2] is “almost no parent peptide remained”.
`CC(C)C[C@H](NC(=O)[C@H](CCCNC(=N)N)NC(=O)[C@H](CCCNC(=N)N)NC(=O)[C@H](Cc1ccccc1)NC(=O)[C@H](C)NC(=O)[C@H](CCCCN)NC(=O)CNC(=O)[C@@H](N)Cc1ccc(O)c([N+](=O)[O-])c1)C(=O)NCC(=O)N[C@@H](CCCCNC(=O)c1ccccc1N)C(=O)O` [Y′GKAFRRLGK′] (H-[Tyr(3-NO2)]GKAFRRLGK(2Abz)-OH): the “hK2 hydrolysis rate after substitution of Dap-F with Leu-Gly (in words)” value on hK2 (compare FIG. 2 with FIG. 8) was “only a modest decrease in hydrolysis rate”. In data set [1] (50% human plasma, 500 μM), the “relative stability of the peptides (in words)” value was “less stable than the Dap containing peptide” and the share remaining at 3 h, 500 μM is roughly 25%. In addition, the “degradation after overnight incubation (in words)” value in data set [1] was “complete degradation”. Besides, in data set [2], the “relative stability of the peptides (in words)” value is reported as “less stable than the Dap containing peptide” and the “parent peptide remaining after 3 hours (in words)” value is reported as “almost no parent peptide remained”.
On to “Y′GSKGHFHL-Dap-K′: arginine-free fluorescence-quenched peptide from SPOT analysis sequence ([Tyr(3-NO2)]GSKGHFHL[Dap]K(Abz))”, for which the “digestion by hK2 of arginine-free peptides (in words)” value with hK2 is “none of these three arginine free peptides were digested by hK2”.
Regarding “Y′GSKGHFKL-Dap-F-K′: fluorescence-quenched substrate without arginine ([Tyr(3-NO2)]GSKGHFKL[Dap]FK(Abz))”, the “hK2 mediated hydrolysis (in words, FIG. 2)” value in the data set with hK2 is recorded as “did not show any hydrolysis”.
With “Y′GSKGHFKL-Dap-K′: arginine-free fluorescence-quenched peptide, P1 lysine ([Tyr(3-NO2)]GSKGHFKL[Dap]K(Abz))”, the “digestion by hK2 of arginine-free peptides (in words)” value with hK2 is “none of these three arginine free peptides were digested by hK2”.
For “Y′GSKGPFKL-Dap-K′: arginine-free fluorescence-quenched peptide derivative ([Tyr(3-NO2)]GSKGPFKL[Dap]K(Abz))”, in the data set with hK2, the “digestion by hK2 of arginine-free peptides (in words)” value was “none of these three arginine free peptides were digested by hK2”.

The values above are taken from US7906477B2 (Genspera, Inc., priority 2002, dated 2011).
